The source of these data is patent US20070249555A1, “Use of Atp Analogues for Treatment of Cardiovascular Diseases” (INSTITUT NATIONAL DE LA SANTE ET DE LA RECHERCHE MEDICALE …, priority 2004, published 2007).

The test system of one assay is HepG2 cells. Briefly: TG-HDL2 internalization by HepG2 cells. Particulars: 10 min at 37° C.; for effect on the stimulation by ADP of the TG-HDL2 internalization: ADP 100 nM + A2P5P 100 μM or MRS2179 10 μM. Format: cell-based, human. How it is done: Cells were incubated for 10 minutes at 37° C. with 75 μg/ml^125I-TG-HDL2 without (control) or with apolipoprotein A-I 10 μg/ml (a), ADP 100 nM (b), AR-C69931MX 100 nM (c), ADP 100 nM+AR-C69931MX 100 nM (d), ADP 100 nM+[…] 100 μM (e), ADP 100 nM+MRS2179 10 μM (f). […] Internalization assays were performed as described in Guendouzi et al., (Biochemistry, 1998, 37: 14974-80) on HepG2 cells, obtained from the American Type Culture Collection ([…]). Cells were incubated for 10 minutes at 37° C. with 75 μg/ml of either ^125I-TG-HDL2, ^125I-HDL3 or ^125I-LDL. After washing and dissociation at 4° C. in phosphate buffered saline (PBS), cell radioactivity was determined using a Wallac 1261 multigamma apparatus. Prior experiments, cells were plated in polylysine-coated 24-multiwell plates (Falcon) at 4×10^4 cells per well. Cells were grown in Dulbecco's modified Eagles medium supplemented with 10% fetal calf serum, 100 units/ml penicillin, and 100 μg/ml streptomycin at 37° C. in a 5% CO2 and 95% air incubator. Medium was changed every 2 or 3 days, and the cells were subcultured every 7-8 days. Results are expressed as a percentage of internalization with respect to the control value (set at 0). Control corresponded to a basal value of internalization, amounting to 400 ng, 300 ng, 200 ng of TG-HDL2, HDL3 and LDL per mg of cells protein respectively for 10 minutes. Data as a mean ±SEM of at least 7, 5, 6 independent experiments, for TG-HDL2, HDL3 and LDL respectively.

The target of the next assay is T1, human P2Y1 receptor (Homo sapiens, UniProt P47900).
T1 construct: host or cells: HepG2
Briefly: TG-HDL2 internalization by HepG2 cells after P2Y1 receptor silencing by siRNA. Format: cell-based. The following applies: HepG2, pool of 4 P2Y1 siRNAs 100 nM, 48 h; apoA-I 10 μg/ml, ADP 100 nM, AR-C69931MX 100 nM. How it is done: HepG2 cells were transiently transfected with siRNA designated to human P2Y1 receptor (columns d, e, f, g) or with non specific siRNA as control (a, b, c). 48 hours later, cells were incubated for 10 minutes at 37° C. with 75 μg/ml ^125I-TG HDL2 without (control) or with apolipoprotein A-I 10 μg/ml (a and d), ADP 100 nM (b and e), AR-C69931MX 100 nM (c and f), PBS (g). Data are expressed as a percentage of internalized radioactivity with respect to the control value (set as 0) (n>5); (*) p<0.05 (unpaired t-test).
(§1) Internalization assays were performed as described in Guendouzi et al., (Biochemistry, 1998, 37: 14974-80) on HepG2 cells, obtained from the American Type Culture Collection ([…]). Cells were incubated for 10 minutes at 37° C. with 75 μg/ml of either ^125I-TG-HDL2, ^125I-HDL3 or ^125I-LDL. After washing and dissociation at 4° C. in phosphate buffered saline (PBS), cell radioactivity was determined using a Wallac 1261 multigamma apparatus.
(§2) The silencing of the different P2Y receptors were carried-out using the siRNA technique. The siRNA sequenced targeting human P2Y13 receptor (Gene Bank GB/EMBL/DDBJ accession number AF295368) was from position 406 or 359 relative to the start codon. The siRNA duplex (21-nt-RNAs) in deprotected and desalted form, the siRNA targeting human P2Y1 receptor (a mix of 4 siRNAs, M-005689), and the non-specific control siRNA (D-001206-01) were purchased from Dharmacon Inc. Subconfluent HepG2 cells were transiently transfected with siRNAs (final concentration, 100 nM) using Oligofectamine™ according to the manufacturer's protocole (Invitrogen). Cells were usually assayed 48 hours after transfection. Specific silencing effect was confirmed by at least three independent experiments.
Results are expressed as a percentage of internalization with respect to the control value (set at 0). Control corresponded to a basal value of internalization, amounting to 400 ng, 300 ng, 200 ng of TG-HDL2, HDL3 and LDL per mg of cells protein respectively for 10 minutes. […]

The target in another assay is T2, human P2Y13 receptor (Homo sapiens, UniProt Q9BPV8).
T2 construct: host or cells: HepG2
T2 sequence (Q9BPV8 1-354): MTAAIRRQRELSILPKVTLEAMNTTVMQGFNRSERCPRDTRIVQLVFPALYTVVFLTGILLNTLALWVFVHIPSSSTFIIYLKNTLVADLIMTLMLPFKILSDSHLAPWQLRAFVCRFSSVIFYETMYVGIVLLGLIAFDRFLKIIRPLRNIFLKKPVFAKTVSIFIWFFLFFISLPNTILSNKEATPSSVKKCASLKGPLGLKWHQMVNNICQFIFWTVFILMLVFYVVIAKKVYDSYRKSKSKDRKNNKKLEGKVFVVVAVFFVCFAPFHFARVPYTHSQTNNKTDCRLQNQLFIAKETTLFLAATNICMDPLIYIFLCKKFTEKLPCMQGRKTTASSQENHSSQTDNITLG
Briefly: TG-HDL2 internalization by HepG2 cells after P2Y13 receptor silencing by siRNA. The following applies: HepG2, P2Y13 siRNA 100 nM, 48 h; apoA-I 10 μg/ml, ADP 100 nM, AR-C69931MX 100 nM. It is filed as cell-based. On the procedure: Experiment was performed as in FIG. 2A with non-specific control siRNA (a, b, c) or with siRNA directed to human P2Y13 receptor (d, e, f, g) (n>7); (*) p<0.05 (unpaired t-test).
as §1, §2
Results are expressed as a percentage of internalization with respect to the control value (set at 0). Control corresponded to a basal value of internalization, amounting to 400 ng, 300 ng, 200 ng of TG-HDL2, HDL3 and LDL per mg of cells protein respectively for 10 minutes. Data as a mean ±SEM of at least 7, 5, 6 independent experiments, for TG-HDL2, HDL3 and LDL respectively.

T1 sequence (P47900 whole entry): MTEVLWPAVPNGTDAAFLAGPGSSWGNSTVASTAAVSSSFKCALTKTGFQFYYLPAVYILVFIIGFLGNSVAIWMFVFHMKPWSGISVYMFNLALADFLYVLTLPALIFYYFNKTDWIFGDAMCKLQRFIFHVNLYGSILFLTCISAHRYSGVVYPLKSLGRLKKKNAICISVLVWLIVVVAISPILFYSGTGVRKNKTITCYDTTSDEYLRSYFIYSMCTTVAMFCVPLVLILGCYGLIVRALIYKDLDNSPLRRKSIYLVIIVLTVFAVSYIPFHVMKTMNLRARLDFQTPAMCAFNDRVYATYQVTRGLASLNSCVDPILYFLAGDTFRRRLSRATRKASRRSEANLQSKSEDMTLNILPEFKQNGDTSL

As for “apoA-I: HDL apolipoprotein A-I; generates ADP through activation of the ectopic form of ATP synthase”, the “internalization of 125I-TG-HDL2 by HepG2 cells, increase above control cells” value with HepG2 cells (75 μg/ml 125I-TG-HDL2, apoA-I 10 μg/ml, ADP 100 nM, AR-C69931MX 100 nM alone) was 20%. For the same compound, the “effect of P2Y1 receptors silencing on the stimulation of TG-HDL2 endocytosis” value in the assay with human P2Y1 receptor is reported as “no effect”. Besides, the “effect of P2Y13 receptor silencing on TG-HDL2 endocytosis after stimulation” value with human P2Y13 receptor is given as “dramatic inhibition”.

On to `CNc1ncnc2c1ncn2[C@H]1C[C@H](OP(=O)(O)O)[C@@H](COP(=O)(O)O)O1` [MRS2179], for which, in the assay with HepG2 cells, the “effect on the stimulation by ADP of the TG-HDL2 internalization” value is on record as “no effect”.

`Nc1ncnc2c1ncn2[C@@H]1O[C@H](COP(=O)(O)O)[C@@H](O)[C@H]1OP(=O)(O)O` [A2P5P]: the “effect on the stimulation by ADP of the TG-HDL2 internalization” value in the assay on HepG2 cells is on record as “no effect”.
